Data on three compounds can be found in patent publication US9932561B2, “Differentiating induced pluripotent stem cells into glucose-responsive, insulin-secreting progeny” (Mayo Foundation for Medical Education and Research, priority 2011, dated 2018).

Where no end group is shown, it is not given here.

Type in all cases: cell-based, human
The test system of experiment [1] is iPS-derived definitive endoderm cells. Briefly: Induction of pancreatic endoderm from iPS-derived definitive endoderm, immunofluorescence for PDX1, NEUROD1, NGN3. As to conditions: definitive endoderm cells treated with FGF10, RA and CYC in the presence of ILV; without ILV low levels of PDX1 expression. On the procedure: For immunostaining, iPS cells were fixed for 20 minutes at room temperature (RT) in 4% paraformaldehyde (PFA) in PBS, washed in PBS, and blocked for 30 minutes with 5% FBS in PBST (PBS with 0.1% Tween-20 (Sigma). Cells were stained with primary antibodies overnight at 4° C., rinsed by PBS, and incubated with secondary antibodies 1 hour at RT (Martinez-Fernandez et al., Circ. Res., 105:648-656 (2009)). Cells at different stages of differentiation were fixed and stained with primary and secondary antibodies. Primary and secondary antibodies used for characterization of iPS and derived cells were: SSEA-1, SSEA-4, TRA-1-60, TRA-1-81 (Millipore #SCR001), OCT4 (Cell Signaling Technology #2750), SOX2 (Cell Signaling Technology #2748), KLF4 (Abcam #ab26648), NANOG (Abcam #ab21624), mouse anti-S0X17 (R&D Systems #MAB1924), rabbit anti-HNF3 beta/FOXA2 (Millipore #07-633), rabbit anti-PDX1 (Santa Cruz Biotechnology #sc-25403), rabbit anti-NGN3 (Millipore #AB5684), rabbit anti-NEUROD1 (Abcam #16508), mouse anti-insulin (Sigma #I2018), rabbit anti-C-peptide (Cell Signaling Technology #4593), rabbit anti-Insulin (Cell Signaling Technology #4590), mouse anti-proinsulin C-peptide (Millipore #CBL94), mouse anti-glucagon (Abcam #ab10988), MafA (Santa Cruz Biotechnology #sc-66958), and rabbit anti-somatostatin (Dako #A0566). […]

The test system of experiment [2] is iPS-derived islet-like clusters. In words: C-peptide release assay, glucose stimulated secretion, ELISA. The note with it: for C-peptide secretion in response to glucose challenge when the agent is left out of the cocktail: HCF#1-derived islet-like clusters differentiated without ILV or without GLP-1, glucose 10 mM and 27.7 mM. On the procedure: (§1) (R&D systems) and 100 ng/mL activin A (Peprotech) in advanced RPMI (A-RPMI, Invitrogen) with Pen/Strep for 1 day, followed by treatment with 100 ng/mL activin A in A-RPMI supplemented with 0.2% FBS (Invitrogen) for two days. At step two, cells were cultured in A-RPMI medium containing 50 ng/mL FGF10 (R&D systems), 0.25 μM KAAD-cyclopamine (CYC), and 2% FBS for 2 days. Cells were then treated with 50 ng/mL FGF10, 0.25 μM CYC, and 2 μM all-trans Retinoic Acid (RA) (Sigma) in DMEM (Invitrogen) supplemented with Pen/Strep, 1× B27 supplement (Invitrogen) for 4 days at step three. Cells were then cultured in the presence of 50 ng/mL FGF10, 300 nM ILV (Axxora), and 55 nM GLP-1 (Sigma) in DMEM with 1 × B27 for 4 days at step four. In step five, differentiation medium included 10 μM DAPT (Sigma) and 55 nM GLP-1 in DMEM with 1× B27 and culture lasted 6 days. Finally, in step six, cells were cultured in the presence of 50 ng/mL hepatocyte growth factor (HGF) (R&D systems), 50 ng/mL Insulin-like growth factor 1 (IGF-1) (R&D systems) and 55 nM GLP-1 in CMRL-1066 medium (Invitrogen) with 1× B27 for 6 days. All experiments were repeated more than three times.
A C-peptide release assay was performed by incubating derived islet-like clusters in Krebs-Ringer solution with bicarbonate and HEPES (KRBH; 129 mM NaCl, 4.8 mM KCl, 2.5 mM CaCl2, 1.2 mM KH2PO4, 1.2 mM MgSO4, 5 mM NaHCO3, 10 mM HEPES, and 0.1% (wt/vol) BSA). […] C-peptide or proinsulin levels were determined using an ultrasensitive C-peptide/proinsulin ELISA kit (Alpco Diagnostics).
C-peptide secretion from iPS-derived islet-like clusters in response to glucose challenge, the critical physiological function of pancreatic beta cells, was analyzed. To determine whether islet-like cells are capable of C-peptide secretion in response to glucose induction, cells were exposed to increasing concentrations of glucose and secreted C-peptide was measured by ELISA. […]
(ELISA stands for enzyme-linked immunosorbent assay.)

The test system of experiment [3] is iPS-derived pancreatic endoderm cells. Briefly: RT-PCR of pancreatic hormone and islet marker genes during guided differentiation. The note with it: following inclusion of GLP-1 with HGF, IGF and DAPT. On the procedure: as §1, with “Finally, in step six, cells were cultured in the presence of 50 ng/mL hepatocyte growth factor (HGF) (R&D systems), 50 ng/mL Insulin-like growth factor 1 (IGF-1) (R&D systems) and 55 nM GLP-1 in CMRL-1066 medium (Invitrogen) with 1× B27 for 6 days. All experiments were repeated more than three times.” left out
To determine the expression of endocrine-specific transcription factors and pancreas-specific genes throughout differentiation, the gene expression pattern was analyzed at each stage of differentiation. RT-PCR detected high levels of FOXA2 expression after 3 days of differentiation, confirming induction of definitive endoderm cells (FIG. 8A). […]

Take `CC(C)[C@H]1C(=O)N[C@H](CO)Cc2c[nH]c3cccc(c23)N1C` [ILV, indolactam V]: the “expression of pancreatic endoderm markers” value in experiment [1] is “resulted in cells expressing PDX1, NEUROD1, and NGN3”. Further, in experiment [2], the “C-peptide secretion in response to glucose challenge when the agent is left out of the cocktail” value is reported as “failed to secrete C-peptide”.

Turning to Exendin-4, the C-peptide secretion result in experiment [2] (pancreatic endoderm treated with HGF, IGF, Exendin-4 and DAPT, data not shown) is “failed produce detectable C-peptide secretion”.

As to “glucagon like peptide-1 (HAEGTFTSDVSSYLEGQAAKEFIAWLVKGR; ends and bridges not checked; UniProt P01275 98-127, looked up) [GLP-1, GLP-1 polypeptide (Sigma), used at 55 nM in the differentiation medium]”, in experiment [2], the “C-peptide secretion in response to glucose challenge when the agent is left out of the cocktail” value was “failed to secrete C-peptide”. Also, the “gene expression of pancreatic hormones and islet markers by RT-PCR” value in experiment [3] was “positive gene expression of pancreatic hormones”.
